From the supplement of paper PMC10307832

Legend:
Test in all cases: relative viability (nuclei count vs DMSO), 5 days (fraction); higher = more cells survive
AZD6482 + OSI-027 = compound: Cc1cc([C@@H](C)Nc2ccccc2C(=O)O)c2nc(N3CCOCC3)cc(=O)n2c1 [AZD6482] + COc1cccc2cc(-c3nc([C@H]4CC[C@H](C(=O)O)CC4)n4ncnc(N)c34)[nH]c12 [OSI-027] (partner 0.5 µM)
Outline: (§1)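 Relative viability divides the nuclei count in treated wells by that in vehicle wells. Lung cancer cell lines were seeded in 1536-well plates, dosed by pin tool the next day, and fixed and stained after 5 days in one step with final 0.05% Triton X-100, 1% formaldehyde and 1 ug/ml Hoechst. Dosing was a single drug or a fixed anchor-drug dose plus five library-drug doses (not always all listed) in √10 steps, and values are medians of duplicate plates imaged at 4×.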

[1] = compound: COc1cc2nc(N3CCCN(C)CC3)nc(NC3CCN(Cc4ccccc4)CC3)c2cc1OC + CS(=O)(=O)N1CCN(Cc2cc3nc(-c4cccc5[nH]ncc45)nc(N4CCOCC4)c3s2)CC1 [Pictilisib] (partner 1 µM)
Outline: as §1

AZD6482 + AZD7762 = compound: Cc1cc([C@@H](C)Nc2ccccc2C(=O)O)c2nc(N3CCOCC3)cc(=O)n2c1 [AZD6482] + NC(=O)Nc1cc(-c2cccc(F)c2)sc1C(=O)N[C@H]1CCCNC1 [AZD7762] (partner 0.2 µM)
Outline: as §1

[2] = compound: COc1cc2nc(N3CCCN(C)CC3)nc(NC3CCN(Cc4ccccc4)CC3)c2cc1OC + CCNC(=O)c1noc(-c2cc(C(C)C)c(O)cc2O)c1-c1ccc(CN2CCOCC2)cc1 [Luminespib] (partner 0.01 µM)
Outline: as §1

Row | Cell Line | relative viability (AZD6482 + OSI-027; first compound 0.08 µM) | relative viability (AZD6482 + OSI-027; first compound 0.253 µM) | relative viability (AZD6482 + OSI-027; first compound 0.8 µM) | relative viability (AZD6482 + OSI-027; first compound 2.53 µM) | relative viability (AZD6482 + OSI-027; first compound 8 µM) | relative viability ([1]; first compound 0.2 µM) | relative viability ([1]; first compound 0.6325 µM) | relative viability ([1]; first compound 2 µM) | relative viability ([1]; first compound 6.325 µM) | relative viability (AZD6482 + AZD7762; first compound 0.08 µM) | relative viability (AZD6482 + AZD7762; first compound 0.253 µM) | relative viability (AZD6482 + AZD7762; first compound 0.8 µM) | relative viability (AZD6482 + AZD7762; first compound 2.53 µM) | relative viability (AZD6482 + AZD7762; first compound 8 µM) | relative viability ([2]; first compound 0.2 µM) | relative viability ([2]; first compound 0.6325 µM) | relative viability ([2]; first compound 2 µM) | relative viability ([2]; first compound 6.325 µM)
1 | 201T | 0.657 | 0.663 | 0.631 | 0.462 | 0.601 | 0.742 | 0.717 | 0.64 | 0.683 | 0.739 | 0.669 | 0.615 | 0.611 | 0.565 | 1.09 | 1.12 | 1.1 | 1.08
2 | A549 |  |  |  |  |  | 0.551 | 0.569 | 0.622 | 0.473 |  |  |  |  |  |  |  |  | 
3 | A-427 | 0.458 | 0.348 | 0.52 |  | 0.423 | 0.755 | 0.728 | 0.679 | 0.675 | 0.645 | 0.804 | 0.684 | 0.451 | 0.627 | 0.934 | 0.784 | 0.8 | 0.997
4 | ABC-1 | 0.51 | 0.478 | 0.358 | 0.401 | 0.406 | 0.618 | 0.926 | 0.699 | 0.611 | 0.825 | 0.892 | 0.695 | 0.772 | 0.638 | 0.588 | 0.52 | 0.512 | 0.737
5 | BEN | 0.314 | 0.302 | 0.273 | 0.276 | 0.299 | 0.571 | 0.643 | 0.69 | 0.572 | 0.664 | 0.68 | 0.779 | 0.457 | 0.646 | 0.415 | 0.737 | 0.264 | 0.516
6 | CAL-12T | 0.706 | 0.715 | 0.519 | 0.348 | 0.342 | 0.402 | 0.53 | 0.388 | 0.34 | 0.686 | 0.647 | 0.677 | 0.468 | 0.665 | 0.441 | 0.308 | 0.337 | 0.28
7 | COR-L23 | 0.552 | 0.791 | 0.911 | 0.611 | 0.751 | 0.843 | 0.701 | 0.931 | 0.772 |  |  |  |  |  | 0.752 | 0.731 | 0.761 | 0.614
8 | COR-L 105 | 0.75 | 0.742 | 0.577 | 0.33 | 0.517 | 0.349 | 0.435 | 0.34 | 0.327 |  |  |  |  |  | 0.948 | 0.899 | 1.02 | 0.469
9 | Calu-6 |  |  |  |  |  | 0.924 | 0.978 | 0.953 | 0.743 |  |  |  |  |  |  |  |  | 
10 | ChaGo-K-1 | 0.634 | 0.323 | 0.539 | 0.477 | 0.49 | 0.752 | 0.87 | 1.12 | 0.49 | 0.897 | 0.775 | 0.946 | 0.823 | 0.915 | 0.569 | 0.671 | 0.74 | 0.527
11 | EBC-1 |  |  |  |  |  | 0.337 | 0.392 | 0.248 | 0.132 |  |  |  |  |  |  |  |  | 
12 | EKVX | 0.624 | 0.62 | 0.684 | 0.387 | 0.434 | 0.466 | 0.46 | 0.357 | 0.4 | 0.564 | 0.666 | 0.538 | 0.478 | 0.494 | 0.829 | 0.878 | 0.831 | 0.888
13 | EMC-BAC-2 | 0.394 | 0.376 | 0.347 | 0.273 | 0.316 | 0.559 | 0.555 | 0.564 | 0.57 | 1.03 | 0.958 | 1.02 | 0.818 | 0.679 | 1.09 | 1.17 | 1.2 | 1.14
14 | EPLC-272H | 0.29 | 0.235 | 0.345 | 0.214 | 0.255 | 0.314 | 0.439 | 0.303 | 0.305 | 0.531 | 0.151 | 0.298 | 0.197 | 0.207 | 0.228 | 0.736 | 0.262 | 0.432
15 | H3255 | 0.618 | 0.53 | 0.554 | 0.411 | 0.392 | 0.487 | 0.397 | 0.529 | 0.422 | 0.895 | 0.83 | 0.984 | 0.697 | 0.692 | 1.14 | 0.852 | 0.878 | 0.898
16 | HARA | 0.318 | 0.528 | 0.633 | 0.249 | 0.376 | 0.395 | 0.53 | 0.453 | 0.308 | 0.424 | 0.338 | 0.269 | 0.224 | 0.516 | 0.703 | 0.467 | 0.744 | 0.736
17 | HCC-15 | 0.672 | 0.61 | 0.666 | 0.385 | 0.485 | 0.744 | 0.883 | 0.701 | 0.618 | 1.24 | 1.4 | 1.26 | 1.18 | 1.11 | 0.174 | 0.205 | 0.342 | 0.241
18 | HCC-44 | 0.46 | 0.511 | 0.574 | 0.37 | 0.296 | 0.616 | 0.693 | 0.563 | 0.605 | 0.897 | 0.997 | 1.1 | 1.11 | 1.38 | 0.96 | 1.08 | 1.34 | 1.34
19 | HCC-78 | 0.316 | 0.315 | 0.32 | 0.265 | 0.303 | 0.206 | 0.212 | 0.207 | 0.188 | 0.671 | 0.388 | 0.57 | 0.327 | 0.409 |  |  |  | 
20 | HCC-366 | 1.01 | 0.801 | 0.906 | 0.574 | 0.515 | 0.15 | 0.168 | 0.098 | 0.154 | 0.23 | 0.243 | 0.253 | 0.179 | 0.25 |  |  |  | 
21 | HCC-827 | 0.709 | 0.658 | 0.8 | 0.451 | 0.48 | 1.04 | 1.09 | 0.636 | 0.886 | 0.351 | 0.184 | 0.162 | 0.131 | 0.137 | 0.627 | 0.555 | 0.634 | 0.612
